Assay results published in patent US20230000865A1, “PHARMACEUTICAL COMPOSITION FOR THE TREATMENT OF PULMONARY VASCULAR DISEASE AND/OR CARDIAC DYSFUNCTION IN FONTAN-PALLIATED PATIENTS” (ACTELION PHARMACEUTICALS LTD, priority 2019, published 2023).
Values belong to the compound of their own block, whether it stands above or below them.

Experiments:
[1] = long-term treatment, patient with plastic bronchitis following Fontan; cited from earlier work
[2] = patients with PAH; cited from earlier work
[3] = Example 1: dose-response (Emax) analysis of hemoglobin change, pooled Phase I studies in healthy volunteers; assay type: in vivo, human
Description: Hemoglobin measurements were pooled from 3 Phase I clinical studies in healthy volunteers: • Study AC-055-102: Investigation of the PK, PD, safety and tolerability of macitentan in male subjects (the study protocol is described in the following publication: Sidharta et al., Safety, tolerability, pharmacokinetics, and pharmacodynamics of macitentan, an endothelin receptor antagonist, in an ascending multiple-dose study in healthy subjects. J. Clin. Pharmacol. (2013), 53(11), 1131-1138) • Study AC-055-116: Investigation of the PK, PD, safety and tolerability of macitentan in male Japanese subjects (the study protocol is described in the following publication: Yokoyama et al., Tolerability, Safety, Pharmacokinetics, and Pharmacodynamics of Macitentan, a New Endothelin Receptor Antagonist, in Healthy Japanese Male Subjects. Rinsho yakuri/Japanese Journal of Clinical Pharmacology and Therapeutics (2016), 47, 143-150) • Study AC-055-117: Investigation of the PK, PD, safety and tolerability of macitentan in male Korean subjects (the study protocol is described in the following publication: Ahn et al., Pharmacokinetic-pharmacodynamic relationships of macitentan, a new endothelin receptor antagonist, after multiple dosing in healthy Korean subjects, Am. […]
Hemoglobin concentrations measured in the morning of Day 11 of macitentan treatment and at baseline on Day −1 were used in the analysis. […]

[4] = Example 2: Phase 1 safety study of 75 mg qd macitentan in healthy male subjects, with and without up-titration; assay type: in vivo, human
Description: This is a single-sequence, open-label, single-center, Phase 1 study in healthy male subjects. The study assessed the effect of 75 mg qd administration of macitentan. The study includes a screening phase of 21 days before the first macitentan administration, followed by an open-label treatment phase. Randomization was not used and subjects received the same treatment.
29 subjects were enrolled.
Administration of 75 mg qd macitentan started on Day 1. Macitentan was administered every day in the morning between 8:00 and 11:00 with 240 mL of noncarbonated water. One 75-mg macitentan film-coated tablet was thus administered as multiple qd oral doses under fed conditions.
Subjects were planned to take macitentan 75 mg for 15 days. However the study was interrupted on the morning of day 8, i.e. when subjects had received 7 doses of macitentan 75 mg.
Macitentan was administered in an up-titration regimen in the morning between 8:00 and 11:00 with 240 mL of noncarbonated water. One macitentan film-coated tablet (10 mg, 37.5 mg or 75 mg) was administered as multiple qd oral doses under fed conditions on Days 1-9 and Days 11-12, and under fasted conditions on Days 10 and 13. The up-titration regimen consists of 2 qd doses of 10 mg macitentan and 3 qd doses of 37.5 mg macitentan followed by 8 qd doses of 75 mg macitentan. On Days −4, −3, 10 and 13 (i.e., the days when dosing occurred under fasted conditions), no fluid intake apart from the water taken at the time of macitentan administration was allowed from 1 hour before until 1 hour after administration of macitentan.
All reported AEs with onset during the treatment phase were included in the analysis. The effects on cardiovascular variables were evaluated and the following variables were collected: PR (ms), QRS (ms), QT (ms), QTcB (ms), QTcF (ms), heart rate (bpm), and RR. The normal range for vital signs is defined as follows: • Systolic blood pressure: 100-140 mmHg • Diastolic blood pressure: 60-90 mmHg • Pulse rate: 45-90 bpm • Respiratory rate: 8-20 per minute • Body temperature: 35.0° C. to 37.5° C.
An AE is any untoward medical occurrence, i.e., any unfavorable and unintended sign (including an abnormal finding), symptom, or disease temporally associated with the use of macitentan. A treatment-emergent AE is any occurrence that is new in onset or aggravated in severity from the baseline condition. The following are used to assess all AEs: • Related: There is a reasonable causal relationship between macitentan administration and the AE. • Not Related: There is not a reasonable causal relationship between macitentan administration and the AE.
An assessment of AE severity grade was made using the following general categorical descriptors: • Mild: Awareness of symptoms that are easily tolerated, causing minimal discomfort and not interfering with everyday activities. • Moderate: Sufficient discomfort is present to cause interference with normal activity. • Severe: Extreme distress, causing significant impairment of functioning or incapacitation. Prevents normal everyday activities.

BCRP transporters = biological target: T1, BCRP transporters (Homo sapiens, UniProt Q9UNQ0); assay: Drug-drug interaction, pharmacokinetics of rosuvastatin; assay type: in vivo; conditions: for Drug-Drug Interaction observed: in vivo
T1 construct: from tissue; host or cells: in vivo: gut, liver canalicular membrane, kidney
T1 sequence (Q9UNQ0 1-655): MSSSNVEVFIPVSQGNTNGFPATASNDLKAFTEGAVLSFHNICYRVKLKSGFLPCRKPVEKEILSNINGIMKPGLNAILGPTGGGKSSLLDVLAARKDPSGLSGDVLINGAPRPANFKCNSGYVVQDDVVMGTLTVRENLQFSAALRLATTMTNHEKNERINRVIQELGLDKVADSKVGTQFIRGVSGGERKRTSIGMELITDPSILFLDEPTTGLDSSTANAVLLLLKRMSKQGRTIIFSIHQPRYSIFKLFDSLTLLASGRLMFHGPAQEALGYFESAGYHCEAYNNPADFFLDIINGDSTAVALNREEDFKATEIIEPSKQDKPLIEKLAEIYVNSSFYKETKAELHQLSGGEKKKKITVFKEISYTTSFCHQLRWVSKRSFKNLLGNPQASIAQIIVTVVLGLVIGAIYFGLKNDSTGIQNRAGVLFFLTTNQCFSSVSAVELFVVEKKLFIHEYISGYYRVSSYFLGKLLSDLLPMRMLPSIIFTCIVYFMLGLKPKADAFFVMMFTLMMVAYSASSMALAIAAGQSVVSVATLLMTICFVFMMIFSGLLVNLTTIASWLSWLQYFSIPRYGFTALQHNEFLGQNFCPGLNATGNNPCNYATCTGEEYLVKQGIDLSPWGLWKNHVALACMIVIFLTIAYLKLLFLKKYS
Description: BCRP is an efflux pump located in the gut, liver canalicular membrane, and kidney, and is exposed to intracellular drug concentrations in the liver and the kidney.

[5] = cited from earlier work
[6] = parameters: key to Frequency observed with macitentan 10 mg: Photophobia: Very common: very common (≥1/10); Common: common (≥1/100 to <1/10); Uncommon: uncommon (≥1/1,000 to <1/100); rare (≥1/10,000 to <1/1,000); very rare (<1/10,000); Not known: not known (cannot be estimated from the available data); conditions: cited from earlier work
human PXR = biological target: T2, human PXR (Homo sapiens, UniProt O75469); assay: Activation of human PXR; assay type: cell-based
T2 sequence (O75469 1-434): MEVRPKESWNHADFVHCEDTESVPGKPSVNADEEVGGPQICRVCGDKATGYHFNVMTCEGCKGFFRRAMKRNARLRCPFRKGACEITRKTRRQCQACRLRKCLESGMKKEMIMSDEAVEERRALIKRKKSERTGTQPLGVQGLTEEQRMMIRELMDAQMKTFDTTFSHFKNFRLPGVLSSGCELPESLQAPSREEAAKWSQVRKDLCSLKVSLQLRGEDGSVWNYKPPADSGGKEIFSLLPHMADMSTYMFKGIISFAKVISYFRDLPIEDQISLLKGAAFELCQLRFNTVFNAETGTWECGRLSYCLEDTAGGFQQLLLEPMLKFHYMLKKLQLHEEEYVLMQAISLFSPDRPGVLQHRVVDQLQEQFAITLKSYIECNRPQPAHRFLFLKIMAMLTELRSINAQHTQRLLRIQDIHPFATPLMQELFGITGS
Description: In human hepatocytes, both compounds elicited concentration-dependent increases in CYP3A4 mRNA and enzyme activity.

ET receptors = conditions: cited from earlier work
[7] = preoperative Fontan candidates with mild pulmonary hypertension; cited from earlier work
[8] = early postoperative phase; cited from earlier work
[9] = 75 mg qd without up-titration, 6 subjects
[10] = 75 mg qd, healthy male subjects
[11] = up-titration 10/37.5/75 mg qd, 6 subjects

SMILES: COc1ccccc1Oc1c(NS(=O)(=O)c2ccc(C(C)(C)C)cc2)nc(-c2ncccn2)nc1OCCO [bosentan]
symptoms, aortic oxygen saturation, functional class, exercise capacity, Borg dyspnoea index, mean PAP, pulmonary blood flow and PVR [1]: improved | exercise capacity, functional class, health-related quality of life and haemodynamic parameters (including PVR and PAP) [2]: improve

maximum effect on hemoglobin decrease (Emax) ([3]; Day 11 vs baseline Day -1, nonlinear regression): around 1.23 g/dL | dose at which the effect on hemoglobin decrease plateaus ([3]; FIG. 1): 10 mg | Drug-Drug Interaction observed (BCRP transporters): No Drug-Drug Interaction | effect on the pharmacokinetics of 1 mg rosuvastatin (BCRP transporters; macitentan 10 mg per day o.d.): has not shown any effect | EC50 (human PXR): 1.1 to 1.2 µM
SMILES: CCCNS(=O)(=O)Nc1ncnc(OCCOc2ncc(Br)cn2)c1-c1ccc(Br)cc1 [macitentan, propylsulfamic acid [5-(4-bromo-phenyl)-6-[2-(5-bromo-pyrimidin-2-yloxy)-ethoxy]-pyrimidin-4-yl]-amide]
N with Flushing/feeling of warmth/redness of face and/or hands (No titration) [4, 9]: 4 | N with Headache (No titration) [4, 9]: 6 | N with Photophobia (No titration) [4, 9]: 3 | N with Sinusitis/rhinitis/nasal congestion (No titration) [4, 9]: 5 | Severity of AEs (No titration): Photophobia [4, 9]: All mild | Severity of AEs (No titration): Sinusitis/rhinitis/nasal congestion [4, 9]: All mild | overall severity of AEs [4, 10]: mainly mild | reduction in hemoglobin [4, 10]: ≤ 2 g/dL | study day from which AEs were reported [4, 10]: ≥ 2 days | vital signs, ECG and lab parameters [4, 10]: no clinically significant changes | resolution of AEs ([4]; Four days after stopping macitentan): most of the AEs resolved | Duration of AE (With titration): Sinusitis/rhinitis/nasal congestion [4, 11]: < 24 h | N with Flushing/feeling of warmth/redness of face and/or hands (With titration) [4, 11]: 0 | N with Headache (With titration) [4, 11]: 6 | N with Photophobia (With titration) [4, 11]: 0 | N with Sinusitis/rhinitis/nasal congestion (With titration) [4, 11]: 1 | Severity of AEs (With titration): Sinusitis/rhinitis/nasal congestion [4, 11]: Mild, less than | completion of treatment ([4]; up-titration regimen cohort): All subjects completed treatment | tolerability of 75 mg macitentan with up-titration regimen ([4]; up-titration vs no up-titration): improved tolerability | steady state is reached ([5]; in humans, day of administration): by the third day | half-life ([5]; in humans): about 16 hours | absorption into the plasma ([5]; in vivo): absorbed slowly | Frequency observed with macitentan 10 mg: Flushing/feeling of warmth/redness of face and/or hands [6]: Uncommon (uncommon (≥1/1,000 to <1/100)) | Frequency observed with macitentan 10 mg: Headache [6]: Very common (very common (≥1/10)) | Frequency observed with macitentan 10 mg: Photophobia [6]: Not known | Frequency observed with macitentan 10 mg: Sinusitis/rhinitis/nasal congestion [6]: Common (common (≥1/100 to <1/10))

Drug-Drug Interaction observed (BCRP transporters): No Drug-Drug Interaction | EC50 (human PXR): 7.2 to 8.7 µM
SMILES: NS(=O)(=O)Nc1ncnc(OCCOc2ncc(Br)cn2)c1-c1ccc(Br)cc1 [ACT-132577]
affinity for the ET receptors compared with parent compound (ET receptors): lower affinity | half-life ([5]; in humans): approximately 48 hours | plasma concentrations compared with macitentan ([5]; in vivo): higher plasma concentrations than macitentan | time of peak plasma concentration after the first dose ([5]; metabolite after macitentan administration): about 30 hours

SMILES: CC#CCC(C)[C@H](O)/C=C/[C@@H]1[C@H]2c3cccc(CCCC(=O)O)c3O[C@H]2C[C@H]1O (mixture of isomers) [beraprost]
effect on mean pulmonary artery pressure (PAP) and PVR [7]: reduces

SMILES: CCCCC[C@H](O)/C=C/[C@@H]1[C@H]2C/C(=C/CCCC(=O)O)O[C@H]2C[C@H]1O [epoprostenol]
rebound effect after inhaled nitric oxide (NO) cessation [8]: prevent the rebound effect
